Source: patent publication US6506772B1, “Substituted [1,2,4]triazolo[1,5a]pyridine derivatives with activity as adenosine receptor ligands” (Hoffmann-La Roche Inc., priority 2000, dated 2003)
Like-named read-outs stand apart in the source and are kept apart here.

Key:
[1] = biological target: T1, human adenosine A2A receptor (Homo sapiens, UniProt P29274); experiment: Human adenosine A2A receptor [3H]-SCH-58261 binding assay
T1 construct: expressed in transfected cells; host or cells: CHO cells, Semliki Forest virus expression system; membrane preparation
T1 sequence (P29274 whole entry): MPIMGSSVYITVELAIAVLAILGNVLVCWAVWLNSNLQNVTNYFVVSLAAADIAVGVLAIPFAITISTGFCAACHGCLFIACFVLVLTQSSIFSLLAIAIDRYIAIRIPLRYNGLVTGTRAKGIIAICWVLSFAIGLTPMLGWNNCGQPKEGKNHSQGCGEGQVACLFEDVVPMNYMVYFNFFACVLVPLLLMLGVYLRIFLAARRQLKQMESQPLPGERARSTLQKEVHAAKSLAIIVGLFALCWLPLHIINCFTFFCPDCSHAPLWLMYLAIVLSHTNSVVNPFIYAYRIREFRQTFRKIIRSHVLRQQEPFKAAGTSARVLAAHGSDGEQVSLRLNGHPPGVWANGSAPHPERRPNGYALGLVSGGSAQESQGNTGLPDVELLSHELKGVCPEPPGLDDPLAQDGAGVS

[2] = biological target: T2, HA1 adenosine receptor (Homo sapiens, UniProt P30542); experiment: Human adenosine A1 receptor affinity (Ki hA1); type: binding
T2 sequence (P30542 1-326): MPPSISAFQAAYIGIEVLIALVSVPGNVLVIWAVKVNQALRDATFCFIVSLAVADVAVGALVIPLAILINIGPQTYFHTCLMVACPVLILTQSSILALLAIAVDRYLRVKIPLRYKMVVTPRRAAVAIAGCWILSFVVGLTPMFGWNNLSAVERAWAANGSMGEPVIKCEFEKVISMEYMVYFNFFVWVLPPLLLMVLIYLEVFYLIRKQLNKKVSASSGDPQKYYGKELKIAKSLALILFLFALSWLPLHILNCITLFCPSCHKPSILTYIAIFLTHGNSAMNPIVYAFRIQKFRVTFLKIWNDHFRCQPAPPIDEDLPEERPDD

[3] = affinity to human adenosine A2A receptor, read-out: Ki HA2A
[4] = calculated ratio of the affinity to the HA1 receptor to the HA2a receptor
[5] = affinity to human adenosine A1 receptor
[6] = recombinant human A2A in CHO cell membranes, [3H]-SCH-58261, Cheng-Prussoff, read-out: Ki hA2A

C=CCN(CC=C)C(=O)c1cc(N)n2nc(-c3ccc(Br)o3)nc2c1 [Example 274, 5-Amino-2-(5-bromo-furan-2-yl)-[1,2,4]triazolo[1,5-a]pyridine-7-carboxylic acid diallylamide]
Ki [1, 3]: 2.8 nM | selectivity (A1/A2a) [1, 4]: 41.6 | Ki [2, 5]: 116 nM

COc1cc(CNC(=O)c2cc(N)n3nc(-c4nccs4)nc3c2)cc(OC)c1OC [Example 97, 5-Amino-2-thiazol-2-yl-[1,2,4]triazolo[1,5-a]pyridine-7-carboxylic acid 3,4,5-trimethoxy-benzylamide]
Ki [1, 3]: 235 nM | selectivity (A1/A2a) [1, 4]: 10.9 | Ki [2, 5]: 2560 nM

Cn1cccc1-c1nc2cc(C(=O)NC3CCCCC3)cc(N)n2n1 [Example 179, 5-Amino-2-(1-methyl-1H-pyrrol-2-yl)-[1,2,4]triazolo[1,5-a]pyridine-7-carboxylic acid cyclohexylamide]
Ki [1, 3]: 144 nM | selectivity (A1/A2a) [1, 4]: 5.4 | Ki [2, 5]: 779 nM

Nc1cc(C(=O)N2CCCC2)cc2nc(-c3ccccc3O)nn12 [Example 118, [5-Amino-2-(2-hydroxy-phenyl)-[1,2,4]triazolo[1,5-a]pyridin-7-yl]-pyrrolidin-1-yl-methanone]
Ki [1, 3]: 126 nM | selectivity (A1/A2a) [1, 4]: 15.5 | Ki [2, 5]: 1960 nM

Cc1ccsc1-c1nc2cc(C(=O)N(C(C)C)C(C)C)cc(N)n2n1 [Example 186, 5-Amino-2-(3-methyl-thiophen-2-yl)-[1,2,4]triazolo[1,5-a]pyridine-7-carboxylic acid diisopropylamide]
Ki [1, 3]: 210 nM | selectivity (A1/A2a) [1, 4]: 1.2 | Ki [2, 5]: 249 nM

Nc1cc(C(=O)N2CCCCCC2)cc2nc(-c3ccc(Br)o3)nn12 [Example 296]
Ki [1, 3]: 1.7 nM | selectivity (A1/A2a) [1, 4]: 31.0 | Ki [2, 5]: 52.7 nM

CCCCN(CC)C(=O)c1cc(N)n2nc(-c3ccc(Br)o3)nc2c1 [Example 277, 5-Amino-2-(5-bromo-furan-2-yl)-[1,2,4]triazolo[1,5-a]pyridine-7-carboxylic acid butyl-ethyl-amide]
Ki [1, 3]: 3.2 nM | selectivity (A1/A2a) [1, 4]: 40.3 | Ki [2, 5]: 129 nM

CN(C(=O)c1cc(N)n2nc(-c3ccccc3)nc2c1)C1CCCCC1 [Example 148, 5-Amino-2-phenyl-[1,2,4]triazolo[1,5-a]pyridine-7-carboxylic acid cyclohexyl-methyl-amide]
Ki [1, 3]: 148 nM | selectivity (A1/A2a) [1, 4]: 8.1 | Ki [2, 5]: 1200 nM

CC(C)N(Cc1ccccc1)C(=O)c1cc(N)n2nc(-c3ccco3)nc2c1 [Example 136, 5-Amino-2-furan-2-yl-[1,2,4]triazolo[1,5-a]pyridine-7-carboxylic acid benzyl-isopropyl-amide]
Ki [1, 3]: 12 nM | selectivity (A1/A2a) [1, 4]: 18.5 | Ki [2, 5]: 222 nM

Cc1ccsc1-c1nc2cc(C(=O)NCc3ccccc3Cl)cc(N)n2n1 [Example 191, 5-Amino-2-(3-methyl-thiophen-2-yl)-[1,2,4]triazolo[1,5-a]pyridine-7-carboxylic acid 2-chloro-benzylamide]
Ki [1, 3]: 108 nM | selectivity (A1/A2a) [1, 4]: 1.2 | Ki [2, 5]: 131 nM

CCCN(CC1CC1)C(=O)c1cc(N)n2nc(-c3ccccn3)nc2c1 [Example 424, 5-Amino-2-pyridin-2-yl-[1,2,4]triazolo[1,5-a]pyridine-7-carboxylic acid cyclopropylmethyl-propyl-amide]
selectivity (A1/A2a) ([1]; ratio KiHA1 divided by KiHA2A): 17.7 | Ki [1, 6]: 49.6 nM | Ki [2]: 878 nM

COc1ccc(-c2nc3cc(C(=O)N(C)CCc4ccccc4)cc(N)n3n2)s1 [Example 77, 5-Amino-2-(5-methoxy-thiophen-2-yl)-[1,2,4]triazolo[1,5-a]pyridine-7-carboxylic acid methyl-phenethyl-amide]
Ki [1, 3]: 116 nM | selectivity (A1/A2a) [1, 4]: 2.5 | Ki [2, 5]: 295 nM

Nc1cc(C(=O)N2CCCCCCC2)cc2nc(-c3ccccn3)nn12 [Example 422, (5-Amino-2-pyridin-2-yl-[1,2,4]triazolo[1,5-a]pyridin-7-yl)-azocan-1-yl-methanone]
selectivity (A1/A2a) ([1]; ratio KiHA1 divided by KiHA2A): 21.4 | Ki [1, 6]: 17.4 nM | Ki [2]: 372 nM

CC(C)N(C)C(=O)c1cc(N)n2nc(-c3ccccn3)nc2c1 [Example 411, 5-Amino-2-pyridin-2-yl-[1,2,4]triazolo[1,5-a]pyridine-7-carboxylic acid isopropyl-methyl-amide]
selectivity (A1/A2a) ([1]; ratio KiHA1 divided by KiHA2A): 22.6 | Ki [1, 6]: 62.3 nM | Ki [2]: 1410 nM

CCN(Cc1ccccc1F)C(=O)c1cc(N)n2nc(-c3ccc[nH]3)nc2c1 [Example 85, 5-Amino-2-(1H-pyrrol-2-yl)-[1,2,4]triazolo[1,5-a]pyridine-7-carboxylic acid ethyl-(2-fluoro-benzyl)-amide]
Ki [1, 3]: 169 nM | selectivity (A1/A2a) [1, 4]: 8.3 | Ki [2, 5]: 1400 nM

CN(C)C(=O)C1CCCN1C(=O)c1cc(N)n2nc(-c3ccccn3)nc2c1 (stereo not drawn) [Example 432, 1-(5-Amino-2-pyridin-2-yl-[1,2,4]triazolo[1,5-a]pyridine-7-carbonyl)-pyrrolidine-2-carboxylic acid dimethyl amide]
selectivity (A1/A2a) ([1]; ratio KiHA1 divided by KiHA2A): 27.2 | Ki [1, 6]: 88 nM | Ki [2]: 2400 nM

CCCCNC(=O)c1cc(N)n2nc(-c3cc(Br)co3)nc2c1 [Example 168, 5-Amino-2-(4-bromo-furan-2-yl)-[1,2,4]triazolo[1,5-a]pyridine-7-carboxylic acid butylamide]
Ki [1, 3]: 18.4 nM | selectivity (A1/A2a) [1, 4]: 2.6 | Ki [2, 5]: 47.2 nM

Nc1cc(C(=O)N2CCOCC2)cc2nc(-c3ccc(Cl)o3)nn12 [Example 237, [5-Amino-2-(5-chloro-furan-2-yl)-[1,2,4]triazolo[1,5-a]pyridin-7-yl]-morpholin-4-yl-methanone]
Ki [1, 3]: 52.3 nM | selectivity (A1/A2a) [1, 4]: 13.5 | Ki [2, 5]: 708 nM

CCCCNC(=O)c1cc(N)n2nc(-c3ccccc3O)nc2c1 [Example 158, 5-Amino-2-(2-hydroxy-phenyl)-[1,2,4]triazolo[1,5-a]pyridine-7-carboxylic acid butylamide]
Ki [1, 3]: 87.5 nM | selectivity (A1/A2a) [1, 4]: 3.0 | Ki [2, 5]: 258 nM

CC(C)N(C)C(=O)c1cc(N)n2nc(-c3ccc(Br)o3)nc2c1 [Example 269, 5-Amino-2-(5-bromo-furan-2-yl)-[1,2,4]triazolo[1,5-a]pyridine-7-carboxylic acid isopropyl-methyl-amide]
Ki [1, 3]: 2.7 nM | selectivity (A1/A2a) [1, 4]: 40.9 | Ki [2, 5]: 110 nM

CCN(C)C(=O)c1cc(N)n2nc(-c3ccccn3)nc2c1 [Example 406, 5-Amino-2-pyridin-2-yl-[1,2,4]triazolo[1,5-a]pyridine-7-carboxylic acid ethyl-methyl-amide]
selectivity (A1/A2a) ([1]; ratio KiHA1 divided by KiHA2A): 26.8 | Ki [1, 6]: 147 nM | Ki [2]: 3930 nM

CCN(CC)C(=O)c1cc(N)n2nc(-c3ccco3)nc2c1 [Example 105, 5-Amino-2-furan-2-yl-[1,2,4]triazolo[1,5-a]pyridine-7-carboxylic acid diethylamide]
Ki [1, 3]: 50.9 nM | selectivity (A1/A2a) [1, 4]: 46.9 | Ki [2, 5]: 2380 nM

Cn1cccc1-c1nc2cc(C(=O)NCc3ccccc3Cl)cc(N)n2n1 [Example 181, 5-Amino-2-(1-methyl-1H-pyrrol-2-yl)-[1,2,4]triazolo[1,5-a]pyridine-7-carboxylic acid 2-chloro-benzylamide]
Ki [1, 3]: 54.3 nM | selectivity (A1/A2a) [1, 4]: 4.7 | Ki [2, 5]: 256 nM

CN(C(=O)c1cc(N)n2nc(-c3ccoc3)nc2c1)C1CCCCC1 [Example 222, 5-Amino-2-furan-3-yl-[1,2,4]triazolo[1,5-a]pyridine-7-carboxylic acid cyclohexyl-methyl-amide]
Ki [1, 3]: 241 nM | selectivity (A1/A2a) [1, 4]: 8.5 | Ki [2, 5]: 2050 nM

CCCN(CC1CC1)C(=O)c1cc(N)n2nc(-c3nccs3)nc2c1 [Example 319, 5-Amino-2-thiazol-2-yl-[1,2,4]triazolo[1,5-a]pyridine-7-carboxylic acid cyclopropylmethyl-propyl-amide]
Ki [1, 3]: 87 nM | selectivity (A1/A2a) [1, 4]: 14.3 | Ki [2, 5]: 1240 nM

Nc1cc(C(=O)NC2CCCCC2)cc2nc(-c3ccccn3)nn12 [Example 48, 5-Amino-2-pyridin-2-yl-[1,2,4]triazolo[1,5-a]pyridine-7-carboxylic acid cyclohexylamide]
Ki [1, 3]: 62.1 nM | selectivity (A1/A2a) [1, 4]: 5.9 | Ki [2, 5]: 366 nM

CC(NC(=O)c1cc(N)n2nc(-c3ccccc3)nc2c1)c1ccccc1 (stereo not drawn) [Example 217, 5-Amino-2-phenyl-[1,2,4]triazolo[1,5-a]pyridine-7-carboxylic acid (1-phenyl-ethyl)-amide]
Ki [1, 3]: 84.6 nM | selectivity (A1/A2a) [1, 4]: 0.9 | Ki [2, 5]: 72.6 nM

CC(C)CN(CC(C)C)C(=O)c1cc(N)n2nc(-c3ccc(Br)o3)nc2c1 [Example 346, 5-Amino-2-(5-bromo-furan-2-yl)-[1,2,4]triazolo[1,5-a]pyridine-7-carboxylic acid diisobutylamide]
Ki [1, 3]: 2.4 nM | selectivity (A1/A2a) [1, 4]: 42.7 | Ki [2, 5]: 102 nM

COc1ccc(CNC(=O)c2cc(N)n3nc(-c4ccc(C)o4)nc3c2)cc1 [Example 215, 5-Amino-2-(5-methyl-furan-2-yl)-[1,2,4]triazolo[1,5-a]pyridine-7-carboxylic acid 4-methoxy-benzylamide]
Ki [1, 3]: 295 nM | selectivity (A1/A2a) [1, 4]: 5.2 | Ki [2, 5]: 1540 nM

CN(Cc1ccccc1)C(=O)c1cc(N)n2nc(-c3nccs3)nc2c1 [Example 204, 5-Amino-2-thiazol-2-yl-[1,2,4]triazolo[1,5-a]pyridine-7-carboxylic acid benzyl-methyl-amide]
Ki [1, 3]: 41.7 nM | selectivity (A1/A2a) [1, 4]: 7.8 | Ki [2, 5]: 325 nM
